# Results from patent US20250034216A1, “STEREOSELECTIVE COVALENT LIGANDS FOR ONCOGENIC AND IMMUNOLOGICAL PROTEINS” (The Scripps Research Institute, priority 2021, published 2025).
# Target: T1, DENND2B_C804 (Homo sapiens, UniProt P78524)
# T1 construct: endogenous in cells; host or cells: 22Rv1
# T1 sequence (P78524 1-1137): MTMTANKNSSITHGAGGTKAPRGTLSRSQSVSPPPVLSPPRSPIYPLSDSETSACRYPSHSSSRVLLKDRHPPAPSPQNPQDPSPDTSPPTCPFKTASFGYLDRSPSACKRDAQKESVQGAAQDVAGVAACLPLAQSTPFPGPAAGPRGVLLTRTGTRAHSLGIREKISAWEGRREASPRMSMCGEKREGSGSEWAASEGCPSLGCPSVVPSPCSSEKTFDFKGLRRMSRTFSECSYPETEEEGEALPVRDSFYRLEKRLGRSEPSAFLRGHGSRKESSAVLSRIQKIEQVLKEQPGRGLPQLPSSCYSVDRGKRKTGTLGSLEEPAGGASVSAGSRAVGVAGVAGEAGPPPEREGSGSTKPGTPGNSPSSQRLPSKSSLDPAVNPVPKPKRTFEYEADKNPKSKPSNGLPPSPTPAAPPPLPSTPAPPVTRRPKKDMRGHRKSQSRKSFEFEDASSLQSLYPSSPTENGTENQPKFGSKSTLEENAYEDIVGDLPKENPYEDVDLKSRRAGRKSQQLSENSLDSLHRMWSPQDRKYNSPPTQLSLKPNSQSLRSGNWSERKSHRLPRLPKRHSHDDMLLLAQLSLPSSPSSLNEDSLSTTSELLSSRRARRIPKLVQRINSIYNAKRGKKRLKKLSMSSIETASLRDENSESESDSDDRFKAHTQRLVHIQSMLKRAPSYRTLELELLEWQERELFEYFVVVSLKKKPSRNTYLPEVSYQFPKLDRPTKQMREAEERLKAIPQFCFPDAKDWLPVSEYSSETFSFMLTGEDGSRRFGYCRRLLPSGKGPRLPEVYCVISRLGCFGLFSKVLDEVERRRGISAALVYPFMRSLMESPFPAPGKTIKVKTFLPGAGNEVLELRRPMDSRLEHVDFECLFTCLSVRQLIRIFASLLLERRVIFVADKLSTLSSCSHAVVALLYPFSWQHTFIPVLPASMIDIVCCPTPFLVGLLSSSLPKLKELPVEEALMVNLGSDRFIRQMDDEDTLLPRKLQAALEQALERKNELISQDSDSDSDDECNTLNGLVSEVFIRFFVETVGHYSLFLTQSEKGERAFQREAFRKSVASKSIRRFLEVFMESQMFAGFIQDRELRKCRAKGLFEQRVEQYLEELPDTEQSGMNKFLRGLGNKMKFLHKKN
# Assay: IA-DTB cysteine engagement
# Format: binding
# Settings: 22Rv1 cells, 20 μM probe, 1 h, relative to DMSO
# Method in brief: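 Cells were treated in situ with electrophilic probes, then lysed, and the lysates (2 mg/mL protein) were labeled with IA-DTB for 1 h at ambient temperature. After reduction, alkylation and trypsin digestion, labeled peptides were streptavidin-enriched, TMT-labeled and fractionated. Engagement ratios are probe vs DMSO reporter intensities, averaged across replicates.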
row,SMILES,% engagement DENND2B_C804 [%]
1,"C=CC(=O)N1C[C@H](c2ccc(Br)cc2)[C@H]1C(=O)Nc1cccc2cccnc12 [MY-3A, (2S,3S)-1-acryloyl-3-(4-bromophenyl)-N-(quinolin-8-yl)azetidine-2-carboxamide]",−5.25
2,"C=CC(=O)N1C[C@H](c2ccc(Br)cc2)[C@@H]1C(=O)Nc1cccc2cccnc12 [MY-1B, (2R,3S)-1-acryloyl-3-(4-bromophenyl)-N-(quinolin-8-yl)azetidine-2-carboxamide]",80.25
3,"C=CC(=O)N1C[C@H](c2ccc(Br)cc2)[C@H]1C(=O)Nc1cccc2cccnc12 [MY-3B, (2S,3S)-1-acryloyl-3-(4-bromophenyl)-N-(quinolin-8-yl)azetidine-2-carboxamide]",−5.75
4,"C=CC(=O)N1C[C@@H](c2ccc(Br)cc2)[C@H]1C(=O)Nc1cccc2cccnc12 [MY-1A, (2S,3R)-1-acryloyl-3-(4-bromophenyl)-N-(quinolin-8-yl)azetidine-2-carboxamide]",29.25
